Laboratory results: patent US5516889A, “Synthetic thrombin receptor peptides” (University Technologies International, Inc., priority 1995, dated 1996)
Where two headings read alike, the source gives them in different places. Each block holds one compound with its values, some of them ahead of it. Residues, ends and D or L forms follow the SMILES beside them. *: point of attachment. Propionyl = CCC(=O)*

Legend:
[1] = biological target: T1, thrombin receptor (guinea pig gastric longitudinal muscle strips) (Cavia porcellus, UniProt A0A286XH07); details: for Effect of inhibitor on contractile actions of P5--NH2 and Pr-P4: GLM
T1 sequence (A0A286XH07 24-426): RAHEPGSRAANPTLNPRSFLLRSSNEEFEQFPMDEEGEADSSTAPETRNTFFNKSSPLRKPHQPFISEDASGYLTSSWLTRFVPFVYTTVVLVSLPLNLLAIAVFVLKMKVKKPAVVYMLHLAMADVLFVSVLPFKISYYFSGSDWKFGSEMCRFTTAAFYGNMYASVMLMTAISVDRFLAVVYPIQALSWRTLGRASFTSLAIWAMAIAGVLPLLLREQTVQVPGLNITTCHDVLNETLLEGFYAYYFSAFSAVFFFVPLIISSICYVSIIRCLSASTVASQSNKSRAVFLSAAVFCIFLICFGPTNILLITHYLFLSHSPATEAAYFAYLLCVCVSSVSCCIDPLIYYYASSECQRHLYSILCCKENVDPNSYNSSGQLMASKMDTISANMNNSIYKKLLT
Description: (§1) The guinea pig gastric longitudinal muscle (GLM) strips and the rat thoracic aorta (RA) ring preparations were isolated as previously described 14, 15. In brief, gastric LM strips (3×10 mm), obtained from male albino Hartley strain guinea pigs were equilibrated for about 1.5 h at 37° (in an aerated (95% O2 /5% CO2) Krebs-Henseleit buffer (3 mL) of the following composition (in mM): NaCl, 118; KCl, 4.7; CaCl2, 2.5; MgCl2, 1.2; NaHCO3, 25; KH2 PO4, 1.2; and glucose, 10. The pH was maintained at 7.4. Rat gastric LM strips (3×10 mm) were obtained, as for the GLM strips, from male albino Sprague Dawley animals (250-300 g). The stomach, opened along the greater curvature, was stripped free of all mucosal tissue under microscopic visualization and longitudinal tissue strips were cut exactly at right angles to the visible circular muscle bundles. Tissue strips were pre-equilibrated in the buffer described above. Each tissue was challenged twice each in succession at timed intervals with 50 nM carbachol (20 min intervals), 1 μM angiotensin-II (1 h intervals) and 95 μM (60 μg/mL) receptor pentapeptide (P5, SFLLR, SEQ ID NO: 2) (25 min intervals for GLM; 30-35 min for RLM); tissues were washed at 10 and 15 min after the additions of agonists. Contractions were monitored isometrically using Statham force-displacement transducers. Only tissues responding well to all three agonists were used further for the evaluation of the biological activities of P5 and other peptide agonists.

[2] = tested on: thrombin receptor (rat thoracic aorta rings, intact endothelium); details: for Agonist (relaxation) activity: precontracted with 0.1 μM noradrenaline
Description: Thoracic RA rings (2 mm×3 mm), obtained from male albino Sprague Dawley rats, were equilibrated (about 1 h, 37° ) in the same organ bath buffer as was used for the LM tissue, and tension (baseline 1.0 g) was monitored isometrically using either Statham or Grass force-displacement transducers. The presence of an intact endothelium was ascertained by monitoring a relaxation response to acetylcholine (ACh, 1 μM) in a preparation that was submaximally (EC75) contracted by 0.1 μM noradrenaline (NA) in the presence of 0.1 mM ascorbic acid (to preserve the catecholamine). Only tissues yielding a relaxation concentration-response curve between 0.01 and 10 μM acetylcholine (maximal relaxation of 70 to 90%, relative to the tension developed by 0.1 μM NA) were used for the further evaluation of the receptor-derived peptides. The assay of TRP responsiveness was done (e.g. see FIG. 1) on tissues that were precontacted with 0.1 μM NA at 30 min time intervals. Tissues were washed approx. 5 min after the application of TRPs. […] For purposes of comparison, the same stock solutions of an individual peptide were evaluated, relative to P5, in both the RA and LM bioassays. When possible, both assays were done simultaneously on the same day.
Weighed peptide samples were routinely dissolved in 50 mM phosphate buffer, pH 7.4, to yield stock solutions, from which volumes of up to 0.2 mL were added directly to the organ bath; the concentrations of all stock solutions used were verified by quantitative amino acid analysis of aliquots. Pr-P4 and Pr-P4--NH2 were dissolved in 40 mM phosphate buffer, pH 7.4, containing 20% v/v absolute ethanol (i.e. 8 Vol of the above 50 mM phosphate buffer +2 Vol. ethanol). […] Indomethacin was dissolved in ethanol, such that the final ethanol concentration in the organ bath was at or lower than 0.01% v/v; this concentration of ethanol alone had no effect on the bioassay systems.

[3] = biological target: T2, thrombin receptor (rat gastric longitudinal muscle strips) (Rattus norvegicus, UniProt P26824); test: Rat gastric longitudinal muscle (RLM) strip contractile assay; type: cell-based
T2 construct: Rat gastric LM strips (3×10 mm) were obtained; from tissue; host or cells: rat (Sprague Dawley) gastric longitudinal muscle strips
T2 sequence (P26824 22-432): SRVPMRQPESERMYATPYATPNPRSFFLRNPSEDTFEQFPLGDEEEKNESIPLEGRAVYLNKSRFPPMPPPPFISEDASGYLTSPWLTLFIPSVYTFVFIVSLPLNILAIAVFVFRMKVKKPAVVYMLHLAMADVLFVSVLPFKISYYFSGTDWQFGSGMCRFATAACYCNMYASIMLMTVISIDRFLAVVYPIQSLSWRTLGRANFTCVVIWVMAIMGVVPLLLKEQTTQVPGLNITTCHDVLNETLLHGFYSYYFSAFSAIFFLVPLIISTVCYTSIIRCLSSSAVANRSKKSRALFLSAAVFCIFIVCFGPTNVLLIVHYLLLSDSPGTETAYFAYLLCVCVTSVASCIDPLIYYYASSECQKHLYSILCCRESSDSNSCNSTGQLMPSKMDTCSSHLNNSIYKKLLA
Source text: We obtained an evaluation of the potencies of the various TRPs, relative to P5, by using the linear portions of the concentration-effect curves, so as to calculate for several response levels the average ratio of concentrations (REC) of an individual TRP, relative to concentration of P5 that caused the same contractile response (i.e. REC =ECTRP .div.ECPS). […] In the RA assay, a similar approach to the estimate of relative potencies (REC S) was used, even though all agonists, except for P5--OCH3, appeared to cause equivalent maximal relaxation (FIG. 2, lower).
as §1, with “peptide agonists. For the GLM and RLM assays, concentration-effect curves for all peptides were constructed by expressing the response of each agonist as a percentage (% P595) relative to the contraction caused by 95 μM (60 μg/mL) P5 (0.9±0.1 g tension: mean ±S.E.M. for n=12 in the GLM; 1.6±0.9 g tension: mean ±S.E.M. for n=36 in the RLM).” for “peptide agonists.”
Weighed peptide samples were routinely dissolved in 50 mM phosphate buffer, pH 7.4, to yield stock solutions, from which volumes of up to 0.2 mL were added directly to the organ bath; the concentrations of all stock solutions used were verified by quantitative amino acid analysis of aliquots. Pr-P4 and Pr-P4--NH2 were dissolved in 40 mM phosphate buffer, pH 7.4, containing 20% v/v absolute ethanol (i.e. 8 Vol of the above 50 mM phosphate buffer +2 Vol. ethanol). Control aliquots of the ethanol-containing phosphate buffer alone had no effect on either of the bioassay systems. Acetylcholine, carbachol, indomethacin, noradrenaline and angiotensin-II and thrombin (human, 3000 to 4000 U/mg; 1 U/mL.perspectiveto.10 nM) were from Sigma (St. Louis, Mo.); genistein (GS) was from ICN Biochemicals, Costa Mesa, Calif. Tyrphostin (TP) (RG 50864, also designated AG213) was obtained through the courtesy of Dr. R. R. Swillo, Rhone-Poulenc Rorer (Collegeville, Pa). […] Indomethacin was dissolved in ethanol, such that the final ethanol concentration in the organ bath was at or lower than 0.01% v/v; this concentration of ethanol alone had no effect on the bioassay systems.

[4] = average concentration ratio relative to P5 causing equal contractile response (REC = EC TRP ÷ EC P5)
[5] = average concentration ratio relative to P5 causing equal relaxation response (REC = EC TRP ÷ EC P5)

Relative potency (REC) GLM [1]: 1.8
SMILES: CC(C)C[C@H](NC(=O)[C@H](CC(C)C)NC(=O)[C@H](Cc1ccccc1)NC(=O)[C@H](C)N)C(=O)N[C@@H](CCCNC(=N)N)C(=O)O [AP5, A42 FLLR46] (H-AFLLR-OH)
Relative potency (REC) RA [2]: 1.7

Relative potency (REC) RLM [3]: 0.3
SMILES: CC(C)C[C@H](NC(=O)[C@H](CC(C)C)NC(=O)[C@H](Cc1ccccc1)NC(=O)[C@@H](N)CO)C(=O)N[C@@H](CCCN=C(N)N)C(=O)N[C@@H](CC(N)=O)C(=O)N1CCC[C@H]1C(=O)O [P7, S42 FLLRNP48] (H-SFLLRNP-OH)

Relative potency (REC) GLM [1]: 4.5
SMILES: CC(C)C[C@H](NC(=O)[C@H](CC(C)C)NC(=O)[C@H](Cc1ccccc1)NC(=O)[C@@H](N)CO)C(=O)N[C@@H](CCCCN)C(=O)O [PK5, S42 FLLK46] (H-SFLLK-OH)
Relative potency (REC) RA [2]: 1.3

Further lines, the compound ahead of its results:

SMILES: COC(=O)[C@H](CCCNC(=N)N)NC(=O)[C@H](CC(C)C)NC(=O)[C@H](CC(C)C)NC(=O)[C@H](Cc1ccccc1)NC(=O)[C@@H](N)CO [P5-OCH-3, S42 FLLR46 -O-Methyl]
Relative potency (REC) GLM [1]: 0.1
Relative potency (REC) RA [2]: 0.1
Agonist (relaxation) activity ([2]; RA): partial agonist

SMILES: CC(C)C[C@H](NC(=O)[C@H](CC(C)C)NC(=O)[C@H](Cc1ccccc1)NC(=O)[C@@H](N)CO)C(=O)N[C@@H](CCCNC(=N)N)C(=O)N[C@@H](CC(N)=O)C(=O)N1CCC[C@H]1C(=O)O [P7, S42 FLLRNP48] (H-SFLLRNP-OH)
Relative potency (REC) GLM [1, 4]: 0.4
Relative potency (REC) RA [2, 5]: 1.1

SMILES: CC(C)C[C@H](NC(=O)[C@H](CC(C)C)NC(=O)[C@H](Cc1ccccc1)NC(=O)[C@@H](N)CO)C(=O)N[C@@H](CCCN=C(N)N)C(=O)N[C@@H](CC(N)=O)C(=O)N1CCC[C@H]1C(N)=O [P7-NH2, S42 FLLRNP48 -amide] (H-SFLLRNP-NH2)
Relative potency (REC) RLM [3]: 0.1

SMILES: CC(C)C[C@H](NC(=O)[C@H](CC(C)C)NC(=O)[C@H](Cc1ccccc1)NC(=O)[C@@H](N)CO)C(=O)N[C@@H](CCCNC(=N)N)C(=O)N[C@@H](CC(N)=O)C(=O)N1CCC[C@H]1C(N)=O [P7-NH2, S42 FLLRNP48 -amide] (H-SFLLRNP-NH2)
Relative potency (REC) GLM [1, 4]: 0.04
Agonist (relaxation) activity ([2]; RA): active
Relative potency (REC) RA [2, 5]: 0.08

SMILES: CCC(=O)N[C@@H](Cc1ccccc1)C(=O)N[C@@H](CC(C)C)C(=O)N[C@@H](CC(C)C)C(=O)N[C@@H](CCCNC(=N)N)C(=O)O [Pr-P4, N-propionyl-F43 LLR46] (Propionyl-FLLR-OH)
Relative potency (REC) GLM [1]: 1
Relative potency (REC) RA [2]: 0.1

SMILES: CCC(=O)N[C@@H](Cc1ccccc1)C(=O)N[C@@H](CC(C)C)C(=O)N[C@@H](CC(C)C)C(=O)N[C@@H](CCCNC(=N)N)C(N)=O [Pr-P4-NH2, N-propionyl-F43 -LLR46 -amide] (Propionyl-FLLR-NH2)
Relative potency (REC) RA [2, 5]: A.

SMILES: CC(C)C[C@H](NC(=O)[C@H](Cc1ccccc1)NC(=O)[C@H](Cc1ccccc1)NC(=O)[C@@H](N)CO)C(=O)N[C@@H](CCCNC(=N)N)C(=O)O [Ra-P5, SFFLR] (H-SFFLR-OH)
Relative potency (REC) RLM [3]: 1.0
Relative potency (REC) RA [2, 5]: 4.4

SMILES: CC(C)C[C@H](NC(=O)[C@H](Cc1ccccc1)NC(=O)[C@H](Cc1ccccc1)NC(=O)[C@@H](N)CO)C(=O)N[C@@H](CCCNC(=N)N)C(N)=O [Ra-P5-NH2, SFFLR-amide] (H-SFFLR-NH2)
Relative potency (REC) RLM [3]: 0.07
Agonist (contractile) activity ([3]; RLM): most potent of all of the peptides we examined
Agonist (relaxation) activity ([2]; RA): considerably less potent than the comparable human receptor sequences
Relative potency (REC) RA [2, 5]: 0.2

SMILES: CC(C)C[C@H](NC(=O)[C@H](Cc1ccccc1)NC(=O)[C@H](Cc1ccccc1)NC(=O)[C@@H](N)CO)C(=O)N[C@@H](CCCNC(=N)N)C(=O)N[C@@H](CC(N)=O)C(=O)N1CCC[C@H]1C(=O)O [Ra-P7, SFFLRNP] (H-SFFLRNP-OH)
Relative potency (REC) RLM [3]: 0.3
Relative potency (REC) RA [2, 5]: 0.6

SMILES: O=c1c(-c2ccc(O)cc2)coc2cc(O)cc(O)c12 [genistein, reference compound]
Effect of inhibitor on contractile actions of P5--NH2 and Pr-P4 [1]: similarly effective
Effect of inhibitor on contractile action of carbachol ([3]; RLM): unaffected
Inhibition of the RLM response to P5-NH2 ([3]; mean ±S.E.M. for n=6): 77±3 % inhibition

SMILES: COc1ccc2c(c1)c(CC(=O)O)c(C)n2C(=O)c1ccc(Cl)cc1 [indomethacin, reference compound]
Effect of inhibitor on contractile actions of P5--NH2 and Pr-P4 [1]: blocked
Inhibition of the RLM response to P5-NH2 [3]: 40±6 % inhibition
Effect of inhibitor on contractile action of carbachol ([3]; RLM): unaffected
Effect of inhibitor on RA relaxation responses to TRPs ([2]; RA, P5-NH2 and Pr-P4): not inhibited

SMILES: COc1cc2ncnc(Nc3cccc(Cl)c3)c2cc1OC [tyrphostin, Tyrphostin, reference compound]
Effect of inhibitor on contractile actions of P5--NH2 and Pr-P4 [1]: blocked
Sensitivity of the RLM response to P5-NH2 to the inhibitor [3]: quite sensitive
